Numbered stars: 1 amine (or outer) side, 2 acyl side, 3 side chain; on linkers, the order of the positions; unused ones are H or OH. Square brackets hold non-standard residues; d marks the D form. Side chains are listed from the residue outwards. Peptide text beside a SMILES is read from it. * marks the point of attachment. C20 diacid = O=C(O)CCCCCCCCCCCCCCCCCCC(=O)*; C18 diacid = O=C(O)CCCCCCCCCCCCCCCCC(=O)*; αMePhe(2-F) = C[C@](N)(Cc1ccccc1F)C(=O)O; γGlu = O=C(O)[C@H](CCC(=O)[*:2])N[*:1]; αMeF = C[C@](N)(Cc1ccccc1)C(=O)O; αMeL = CC(C)C[C@](C)(N)C(=O)O; AEEA = NCCOCCOCC(=O)O; Aib = CC(C)(N)C(=O)O
How the values were obtained:
[1] = target: T1, human Gcg receptor (Homo sapiens, UniProt P47871); experiment: [125I]-Glucagon binding (SPA), human Gcg receptor; details: read-out: hGLcgR Ki, nM (SEM, n)
T1 construct: expressed in transfected cells; crude membranes
Outline: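 Crude membranes from cells expressing the receptor, prepared by hypotonic lysis in 50 mM Tris HCl pH 7.5 with protease inhibitors, homogenization and differential centrifugation, were used in a WGA-bead SPA. Binding buffer: 25 mM HEPES pH 7.4, 2.5 mM CaCl2, 1 mM MgCl2, bacitracin, Tween-20.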

[2] = in vitro
Description: The stability of peptides are compared in 1% rat small intestinal fluid (rSIF). The amount of intact peptide is measured for a sample peptide at 0, 3, 15, and 30 minutes to assess proteolytic stability. The amount of intact peptide for a sample peptide is measured in 90% pig small intestinal fluid (pSIF) at 0, 30, 45, and 60 minutes to assess the proteolytic stability.
Peptides are prepared at 0.4 mg/mL in 50 mM Tris pH8.0. […] The mixture is incubated at 37° C. at 150 rpm. Thirty μL of each sample are removed and placed into a new tube before the rSIF is added and at […]. At each time point, the reaction was quenched by 1% TFA in 50% ACN at 1:1. The samples are diluted 100 times using dilution buffer (1:1 of 1% TFA in 50% ACN: 50 mM Tris pH8) and ready for analysis using mass spectrometry (MS).
The data analysis is performed using MassLynx.

[3] = target: human GLP-1 receptor (GLP-1R) (Homo sapiens, UniProt P43220); experiment: cAMP pharmacological functional assay in presence of casein, hGLP-1R; assay type: cell-based; details: HEK293 cells expressing hGLP-1R, 0.1% Casein, geometric mean; read-out: hGLP1R cAMP Rel EC50 nM (SEM, n)
[4] = target: human GLP-1R (Homo sapiens, UniProt P43220); experiment: [125I]-GLP-1 binding (SPA), human GLP-1 receptor; parameters: expressed in transfected cells; crude membranes; details: read-out: hGLP1R Ki, (nM) (SEM, n)
Outline: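 Frozen cell pellets are lysed on ice in hypotonic Tris buffer, pH 7.5, homogenized, and centrifuged to a membrane pellet resuspended at about 1 to 3 mg/mL. Binding is then measured in HEPES-based buffer at pH 7.4, and curves are fitted to give IC50 and Ki.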

[5] = target: T2, gastric inhibitory peptide receptor (GIPR) (Homo sapiens, UniProt P48546); experiment: cAMP pharmacological functional assay in presence of casein, hGIPR; assay type: cell-based; details: HEK293 cells expressing hGIPR, 0.1% Casein, geometric mean; read-out: hGIPR cAMP Rel EC50 nM (SEM, n)
T2 sequence (P48546 22-466): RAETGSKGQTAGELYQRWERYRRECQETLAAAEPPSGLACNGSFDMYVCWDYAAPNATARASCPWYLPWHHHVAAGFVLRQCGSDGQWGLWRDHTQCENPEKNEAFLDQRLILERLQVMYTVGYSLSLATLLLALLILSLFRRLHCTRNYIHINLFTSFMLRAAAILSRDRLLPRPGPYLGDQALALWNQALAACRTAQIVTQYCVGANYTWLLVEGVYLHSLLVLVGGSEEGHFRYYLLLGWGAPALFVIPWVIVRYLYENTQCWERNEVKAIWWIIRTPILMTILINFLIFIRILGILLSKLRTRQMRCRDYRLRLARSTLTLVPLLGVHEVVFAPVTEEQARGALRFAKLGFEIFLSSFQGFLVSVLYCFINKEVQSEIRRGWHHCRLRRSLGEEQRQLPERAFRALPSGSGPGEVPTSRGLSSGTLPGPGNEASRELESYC

[6] = target: T3, human GIP receptor (Homo sapiens, UniProt P48546); experiment: [125I]-GIP binding (SPA), human GIP receptor; details: read-out: hGIPR Ki, nM (SEM, n)
T3 construct: expressed in transfected cells; crude membranes
T3 sequence (P48546 22-466): T2 sequence (P48546 22-466)

[7] = Body weight in diet-induced obese C57/B16 mice, 14-day treatment; assay type: in vivo, C57/B16 diet-induced obese (DIO) male mice; details: s.c., QD, DIO mice
Description: C57/B16 diet-induced obese (DIO) male mice (Taconic, Germantown, NY) weighing 41-50 g are used. Animals are individually housed in a temperature-controlled (24° C.) facility with a 12 hour light/dark photoperiod (lights off at 10:00 AM and lights on at 10:00 PM), with free access to food and water. After 2 week acclimatization to the facility, mice are randomized to treatment groups (n=6/group) based on body weight so each group has similar starting mean body weight.
Mice are treated with either vehicle (40 mM Tris-HCl at pH 8.0) or several peptides between the dose ranges of 0.03 nmol/kg to 10 nmol/kg. Treatments are subcutaneously administered to ad libitum fed DIO mice 30-90 minutes prior to the onset of the dark cycle daily (QD) for 14 days. During the course of the study, body weight and food intake are monitored daily. […]
[formula] “0” dose group represents the vehicle-treated mice during each study. All data are expressed as mean±SEM of 5-6 mice per group. Statistical analyses are assessed by one-way ANOVA followed by Dunnett's multiple comparison test to compare treatment groups to ‘0’, dose (vehicle). *Significant differences are identified at p<0.05. Body weight change after treatment with Example compounds after 15 days. “Δ from vehicle” refers to difference between body weight at day 15 between test and vehicle groups. “% n change” refers to percent decrease in body weight between days 1 and 15 in test groups. Percent decrease in body weight for animals receiving vehicle is recorded, and is less than about 100 in each study.

[8] = test system: CD8+ T cell depleted peripheral blood mononuclear cells; experiment: CD4+ T cell assay for potential clinical immunogenicity; details: Examples 10 uM, KLH 0.33 μM, 7 days
[9] = rat, real gastrointestinal fluid or homogenate, pH 8

Chain of human GLP-1 receptor (GLP-1R) (P43220 24-463): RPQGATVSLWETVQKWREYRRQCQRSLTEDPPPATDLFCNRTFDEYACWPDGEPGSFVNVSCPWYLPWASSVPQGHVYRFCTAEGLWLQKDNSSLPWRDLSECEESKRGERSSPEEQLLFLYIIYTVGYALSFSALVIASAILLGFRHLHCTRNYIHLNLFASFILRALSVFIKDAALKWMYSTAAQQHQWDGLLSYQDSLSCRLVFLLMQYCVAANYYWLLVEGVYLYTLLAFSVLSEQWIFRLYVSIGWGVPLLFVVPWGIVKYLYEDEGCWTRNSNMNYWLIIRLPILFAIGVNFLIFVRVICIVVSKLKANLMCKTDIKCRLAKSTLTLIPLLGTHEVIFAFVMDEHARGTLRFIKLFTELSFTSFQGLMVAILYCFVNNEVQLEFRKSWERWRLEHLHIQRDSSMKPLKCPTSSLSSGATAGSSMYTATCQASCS
Chain of human GLP-1R (P43220 24-463): as above
T1 sequence (P47871 26-477): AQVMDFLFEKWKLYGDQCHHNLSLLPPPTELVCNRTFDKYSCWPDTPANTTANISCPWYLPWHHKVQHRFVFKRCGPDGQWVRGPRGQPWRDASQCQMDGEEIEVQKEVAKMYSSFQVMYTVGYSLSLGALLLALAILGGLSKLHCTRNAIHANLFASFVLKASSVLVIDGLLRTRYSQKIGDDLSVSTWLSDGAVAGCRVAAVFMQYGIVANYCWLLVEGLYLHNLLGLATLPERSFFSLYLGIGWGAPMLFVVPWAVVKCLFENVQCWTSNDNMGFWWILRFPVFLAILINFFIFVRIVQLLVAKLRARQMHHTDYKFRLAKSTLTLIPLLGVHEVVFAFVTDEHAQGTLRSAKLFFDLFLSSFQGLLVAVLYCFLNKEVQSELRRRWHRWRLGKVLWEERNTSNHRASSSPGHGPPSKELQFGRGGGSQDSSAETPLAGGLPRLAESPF

| Ki [1] | EC50 [3] | Ki [4] | EC50 [5] | Ki [6] | Compound | percentage of peptide not cleaved using rSIF [2] | remaining at 0.05 h, 0.4 mg/mL [2, 9] | remaining at 0.25 h, 0.4 mg/mL [2, 9] | remaining at 1 h, 0.4 mg/mL [2, 9] | percent body weight after 14-day of treatment ([7]; dose 0.03 nmol/kg) | percent body weight after 14-day of treatment ([7]; dose 0.1 nmol/kg) | percent body weight after 14-day of treatment ([7]; dose 0.3 nmol/kg) | percent body weight after 14-day of treatment ([7]; dose 1 nmol/kg) | percent body weight after 14-day of treatment ([7]; dose 3 nmol/kg) | percent body weight after 14-day of treatment ([7]; dose 10 nmol/kg) | % Donor Response (CD4+ T cell response) [8] | Median Response Strength in positive donors (CDI) [8] |
| --- | --- | --- | --- | --- | --- | --- | --- | --- | --- | --- | --- | --- | --- | --- | --- | --- | --- |
| 123 nM | 0.0248 nM | 3.91 nM | 0.0323 nM | 0.0565 nM | CC[C@H](C)[C@H](NC(=O)[C@H](CC(C)C)NC(=O)[C@H](Cc1ccc(O)cc1)NC(=O)[C@H](CCC(=O)O)NC(=O)[C@@H](NC(=O)[C@H](Cc1ccccc1)NC(=O)[C@H](CCC(=O)O)NC(=O)C(C)(C)NC(=O)[C@H](CCC(N)=O)NC(=O)[C@H](C)NC(=O)[C@H](CCCCNC(=O)COCCOCCNC(=O)COCCOCCNC(=O)CC[C@H](NC(=O)CCCCCCCCCCCCCCCCC(=O)O)C(=O)O)NC(=O)[C@H](CCC(=O)O)NC(=O)[C@H](CC(=O)O)NC(=O)[C@H](CC(C)C)NC(=O)[C@](C)(CC(C)C)NC(=O)[C@@H](NC(=O)[C@H](CO)NC(=O)[C@H](Cc1ccc(O)cc1)NC(=O)[C@H](CC(=O)O)NC(=O)[C@H](CO)NC(=O)[C@@H](NC(=O)[C@](C)(Cc1ccccc1F)NC(=O)[C@@H](NC(=O)CNC(=O)[C@H](CCC(=O)O)NC(=O)C(C)(C)NC(=O)[C@@H](N)Cc1ccc(O)cc1)[C@@H](C)O)[C@@H](C)O)[C@@H](C)CC)[C@@H](C)CC)C(=O)N[C@@H](CCC(=O)O)C(=O)NCC(=O)NCC(N)=O [Example 104] (H-Y[Aib]EGT[αMePhe(2-F)]TSDYSI[αMeL]LDEK([AEEA-AEEA-γGlu-C18 diacid])AQ[Aib]EFIEYLIEGG-NH2) |  |  |  |  | 94.0% | 94.1% | 89.0% | 82.7% | 70.8% | 71.3% |  |  |
| 80.1 nM | 0.0344 nM | 1.31 nM | 0.0423 nM | 0.0469 nM | CC[C@H](C)[C@H](NC(=O)[C@H](CC(C)C)NC(=O)[C@H](Cc1ccc(O)cc1)NC(=O)[C@H](CCC(=O)O)NC(=O)[C@@H](NC(=O)[C@H](Cc1ccccc1)NC(=O)[C@H](CCC(=O)O)NC(=O)C(C)(C)NC(=O)[C@H](CCC(N)=O)NC(=O)[C@H](C)NC(=O)[C@H](CCCCNC(=O)COCCOCCNC(=O)COCCOCCNC(=O)CC[C@H](NC(=O)CCCCCCCCCCCCCCCCCCC(=O)O)C(=O)O)NC(=O)[C@H](CCCCN)NC(=O)[C@H](CC(=O)O)NC(=O)[C@H](CC(C)C)NC(=O)[C@](C)(CC(C)C)NC(=O)[C@@H](NC(=O)[C@H](CO)NC(=O)[C@H](Cc1ccc(O)cc1)NC(=O)[C@H](CC(=O)O)NC(=O)[C@H](CO)NC(=O)[C@@H](NC(=O)[C@](C)(Cc1ccccc1)NC(=O)[C@@H](NC(=O)CNC(=O)[C@H](CCC(=O)O)NC(=O)C(C)(C)NC(=O)[C@@H](N)Cc1ccc(O)cc1)[C@@H](C)O)[C@@H](C)O)[C@@H](C)CC)[C@@H](C)CC)C(=O)N[C@@H](CCC(=O)O)C(=O)NCC(=O)NCC(=O)N1CCC[C@H]1C(=O)N[C@@H](CO)C(=O)N[C@@H](CO)C(=O)NCC(N)=O [Example 123] (H-Y[Aib]EGT[αMeF]TSDYSI[αMeL]LDKK([AEEA-AEEA-γGlu-C20 diacid])AQ[Aib]EFIEYLIEGGPSSG-NH2) |  |  |  |  | 94.7% | 90.5% | 86.5% | 81.3% | 75.1% | 68.6% |  |  |
|  |  |  |  |  | keyhole limpet hemocyanin [KLH, reference compound] |  |  |  |  |  |  |  |  |  |  | 100% | 391 CDI |

| Compound | Ki [1] | EC50 [3] | Ki [4] | EC50 [5] | Ki [6] | percentage of peptide not cleaved using rSIF [2] | remaining at 0.05 h, 0.4 mg/mL [2, 9] | remaining at 0.25 h, 0.4 mg/mL [2, 9] | remaining at 1 h, 0.4 mg/mL [2, 9] | percent body weight after 14-day of treatment ([7]; dose 0.03 nmol/kg) | percent body weight after 14-day of treatment ([7]; dose 0.1 nmol/kg) | percent body weight after 14-day of treatment ([7]; dose 0.3 nmol/kg) | percent body weight after 14-day of treatment ([7]; dose 1 nmol/kg) | percent body weight after 14-day of treatment ([7]; dose 3 nmol/kg) | percent body weight after 14-day of treatment ([7]; dose 10 nmol/kg) | % Donor Response (CD4+ T cell response) [8] | Median Response Strength in positive donors (CDI) [8] |
| --- | --- | --- | --- | --- | --- | --- | --- | --- | --- | --- | --- | --- | --- | --- | --- | --- | --- |
| CC[C@H](C)[C@H](NC(=O)[C@H](CC(C)C)NC(=O)[C@H](Cc1ccc(O)cc1)NC(=O)[C@H](CCC(=O)O)NC(=O)[C@@H](NC(=O)[C@H](Cc1ccccc1)NC(=O)[C@H](C)NC(=O)C(C)(C)NC(=O)[C@H](CCC(N)=O)NC(=O)[C@H](C)NC(=O)[C@H](CCCCNC(=O)COCCOCCNC(=O)COCCOCCNC(=O)CC[C@H](NC(=O)CCCCCCCCCCCCCCCCCCC(=O)O)C(=O)O)NC(=O)[C@H](CCCCN)NC(=O)[C@H](CC(=O)O)NC(=O)[C@H](CC(C)C)NC(=O)[C@](C)(CC(C)C)NC(=O)[C@@H](NC(=O)[C@H](CO)NC(=O)[C@H](Cc1ccc(O)cc1)NC(=O)[C@H](CC(=O)O)NC(=O)[C@H](CO)NC(=O)[C@@H](NC(=O)[C@](C)(Cc1ccccc1)NC(=O)[C@@H](NC(=O)CNC(=O)[C@H](CCC(=O)O)NC(=O)C(C)(C)NC(=O)[C@@H](N)Cc1ccc(O)cc1)[C@@H](C)O)[C@@H](C)O)[C@@H](C)CC)[C@@H](C)CC)C(=O)N[C@@H](CCC(=O)O)C(=O)NCC(=O)NCC(=O)N1CCC[C@H]1C(=O)N[C@@H](CO)C(=O)N[C@@H](CO)C(=O)NCC(=O)N[C@@H](C)C(=O)N1CCC[C@H]1C(=O)N1CCC[C@H]1C(=O)N1CCC[C@H]1C(=O)N[C@@H](CO)C(N)=O [Example 69] | 22.1 nM | 0.0844 nM | 1.22 nM | 0.0712 nM | 0.03 nM | 100% | 2.2% | 0% | 0% |  |  |  |  |  |  |  |  |

Source: patent US12252524B2, “GIP/GLP1 co-agonist compounds” (Eli Lilly and Company, priority 2018, dated 2025)
